Measurements as given in the NIST ThermoML archive (doi:10.1021/acs.jced.8b00854).

Columns and labels:
[1] = xn = mol fraction of the nth substance listed; conditions: 100 kPa, Liquid, Vibrating tube method
[2] = refractive index (Na D-line) (dimensionless); xn = mol fraction of the nth substance listed; conditions: 100 kPa, Liquid, Standard Abbe refractometry

CCCCn1cc[n+](C)c1.O=S(=O)([O-])C(F)(F)F [1-butyl-3-methylimidazolium trifluoromethanesulfonate] + O
Conditions | mass density, [1] [kg/m3] | refractive index, [2]
293.15 K, x1 = 0.1001 | 1176.55 | 1.396
293.15 K, x1 = 0.2003 | 1227.39 | 1.4145
293.15 K, x1 = 0.3007 | 1251.78 | 1.421
293.15 K, x1 = 0.4003 | 1266.32 | 1.4265
293.15 K, x1 = 0.5001 | 1275.87 | 1.4301
293.15 K, x1 = 0.5998 | 1282.43 | 1.432
293.15 K, x1 = 0.6995 | 1287.53 | 1.434
293.15 K, x1 = 0.8017 | 1291.5 | 1.4355
293.15 K, x1 = 0.8993 | 1294.38 | 1.4365
303.15 K, x1 = 0.1001 | 1169.14 | 1.3945
303.15 K, x1 = 0.2003 | 1219.44 | 1.411
303.15 K, x1 = 0.3007 | 1243.64 | 1.4195
303.15 K, x1 = 0.4003 | 1258.57 | 1.4245
303.15 K, x1 = 0.5001 | 1267.92 | 1.428
303.15 K, x1 = 0.5998 | 1274.38 | 1.4305
303.15 K, x1 = 0.6995 | 1279.4 | 1.4315
303.15 K, x1 = 0.8017 | 1283.28 | 1.4335
303.15 K, x1 = 0.8993 | 1286.22 | 1.4345
313.15 K, x1 = 0.1001 | 1161.07 | 1.3925
313.15 K, x1 = 0.2003 | 1210.91 | 1.4095
313.15 K, x1 = 0.3007 | 1235.41 | 1.418
313.15 K, x1 = 0.4003 | 1250.38 | 1.423
313.15 K, x1 = 0.5001 | 1259.88 | 1.426
313.15 K, x1 = 0.5998 | 1266.41 | 1.4285
313.15 K, x1 = 0.6995 | 1271.39 | 1.43
313.15 K, x1 = 0.8017 | 1275.29 | 1.431
313.15 K, x1 = 0.8993 | 1278.29 | 1.4325
323.15 K, x1 = 0.1001 | 1153.14 | 1.3915
323.15 K, x1 = 0.2003 | 1201.99 | 1.409
323.15 K, x1 = 0.3007 | 1226.91 | 1.4175
323.15 K, x1 = 0.4003 | 1241.75 | 1.421
323.15 K, x1 = 0.5001 | 1251.81 | 1.4245
323.15 K, x1 = 0.5998 | 1258.46 | 1.4255
323.15 K, x1 = 0.6995 | 1263.41 | 1.4275
323.15 K, x1 = 0.8017 | 1267.34 | 1.429
323.15 K, x1 = 0.8993 | 1270.34 | 1.4305
333.15 K, x1 = 0.1001 | 1143.31 | 1.3905
333.15 K, x1 = 0.2003 | 1193.54 | 1.408
333.15 K, x1 = 0.3007 | 1218.41 | 1.4155
333.15 K, x1 = 0.4003 | 1233.39 | 1.42
333.15 K, x1 = 0.5001 | 1243.49 | 1.422
333.15 K, x1 = 0.5998 | 1250.25 | 1.424
333.15 K, x1 = 0.6995 | 1255.51 | 1.4255
333.15 K, x1 = 0.8017 | 1259.46 | 1.427
333.15 K, x1 = 0.8993 | 1262.47 | 1.428
343.15 K, x1 = 0.1001 | 1133.11 | 1.389
343.15 K, x1 = 0.2003 | 1184.05 | 1.405
343.15 K, x1 = 0.3007 | 1209.18 | 1.415
343.15 K, x1 = 0.4003 | 1224.41 | 1.4185
343.15 K, x1 = 0.5001 | 1234.79 | 1.4215
343.15 K, x1 = 0.5998 | 1241.97 | 1.423
343.15 K, x1 = 0.6995 | 1247.23 | 1.4235
343.15 K, x1 = 0.8017 | 1251.33 | 1.4255
343.15 K, x1 = 0.8993 | 1254.45 | 1.4265

CCn1cc[n+](C)c1.F[B-](F)(F)F [1-ethyl-3-methylimidazolium tetrafluoroborate] + O
Conditions | mass density, [1] [kg/m3] | refractive index, [2]
293.15 K, x1 = 0.1001 | 1135.98 | 1.369
293.15 K, x1 = 0.2002 | 1190.68 | 1.3825
293.15 K, x1 = 0.3004 | 1219.59 | 1.3915
293.15 K, x1 = 0.4003 | 1237.8 | 1.398
293.15 K, x1 = 0.5009 | 1251.03 | 1.401
293.15 K, x1 = 0.5999 | 1261.19 | 1.4045
293.15 K, x1 = 0.7002 | 1269.24 | 1.4065
293.15 K, x1 = 0.8004 | 1275.23 | 1.4085
293.15 K, x1 = 0.9011 | 1279.57 | 1.4105
303.15 K, x1 = 0.1001 | 1129.7 | 1.367
303.15 K, x1 = 0.2002 | 1183.7 | 1.381
303.15 K, x1 = 0.3004 | 1212.47 | 1.3895
303.15 K, x1 = 0.4003 | 1230.6 | 1.3955
303.15 K, x1 = 0.5009 | 1243.72 | 1.3995
303.15 K, x1 = 0.5999 | 1253.76 | 1.402
303.15 K, x1 = 0.7002 | 1261.71 | 1.4045
303.15 K, x1 = 0.8004 | 1267.64 | 1.407
303.15 K, x1 = 0.9011 | 1271.96 | 1.408
313.15 K, x1 = 0.1001 | 1123.34 | 1.3655
313.15 K, x1 = 0.2002 | 1176.44 | 1.379
313.15 K, x1 = 0.3004 | 1204.95 | 1.3875
313.15 K, x1 = 0.4003 | 1223.03 | 1.3935
313.15 K, x1 = 0.5009 | 1236.17 | 1.3975
313.15 K, x1 = 0.5999 | 1246.23 | 1.4005
313.15 K, x1 = 0.7002 | 1254.19 | 1.4025
313.15 K, x1 = 0.8004 | 1260.1 | 1.405
313.15 K, x1 = 0.9011 | 1264.39 | 1.4065
323.15 K, x1 = 0.1001 | 1116.34 | 1.364
323.15 K, x1 = 0.2002 | 1169.01 | 1.377
323.15 K, x1 = 0.3004 | 1197.41 | 1.3875
323.15 K, x1 = 0.4003 | 1215.41 | 1.392
323.15 K, x1 = 0.5009 | 1228.52 | 1.3965
323.15 K, x1 = 0.5999 | 1238.61 | 1.399
323.15 K, x1 = 0.7002 | 1246.64 | 1.401
323.15 K, x1 = 0.8004 | 1252.61 | 1.4025
323.15 K, x1 = 0.9011 | 1256.9 | 1.4045
333.15 K, x1 = 0.1001 | 1110.02 | 1.362
333.15 K, x1 = 0.2002 | 1161.89 | 1.376
333.15 K, x1 = 0.3004 | 1190.09 | 1.385
333.15 K, x1 = 0.4003 | 1208.03 | 1.391
333.15 K, x1 = 0.5009 | 1221.09 | 1.395
333.15 K, x1 = 0.5999 | 1231.14 | 1.398
333.15 K, x1 = 0.7002 | 1239.11 | 1.399
333.15 K, x1 = 0.8004 | 1245.05 | 1.401
333.15 K, x1 = 0.9011 | 1249.32 | 1.4025
343.15 K, x1 = 0.1001 | 1101.5 | 1.3615
343.15 K, x1 = 0.2002 | 1153.47 | 1.376
343.15 K, x1 = 0.3004 | 1181.98 | 1.385
343.15 K, x1 = 0.4003 | 1200.26 | 1.39
343.15 K, x1 = 0.5009 | 1213.58 | 1.3935
343.15 K, x1 = 0.5999 | 1223.61 | 1.397
343.15 K, x1 = 0.7002 | 1231.58 | 1.3985
343.15 K, x1 = 0.8004 | 1237.51 | 1.3995
343.15 K, x1 = 0.9011 | 1241.76 | 1.401
